The text below walks through data of ChEMBL document CHEMBL4806962, “Methods and Compositions for Treating Cancer” (2020).

pEC50: −log10 of the molar value. Active and inactive are the calls of the source. The calls are words filed in the database; no cut-off is given here.

Usually pEC50 stands for the EC50 on a negative log10 scale, so that one unit is a factor of ten. Read a low pEC50 as a large EC50.

T1 sequence (Q9BXC1 whole entry): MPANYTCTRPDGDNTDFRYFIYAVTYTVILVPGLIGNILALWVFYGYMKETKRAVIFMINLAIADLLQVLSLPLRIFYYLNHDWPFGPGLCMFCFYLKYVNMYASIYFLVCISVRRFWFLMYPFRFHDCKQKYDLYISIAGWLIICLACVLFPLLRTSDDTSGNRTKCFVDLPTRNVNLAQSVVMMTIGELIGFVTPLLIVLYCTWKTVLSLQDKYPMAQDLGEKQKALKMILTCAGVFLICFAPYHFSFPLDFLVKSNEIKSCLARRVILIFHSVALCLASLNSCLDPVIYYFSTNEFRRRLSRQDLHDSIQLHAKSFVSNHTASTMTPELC

In the first experiment the test system is PBMC. As to the kind of experiment: Effects of compound on IL-2 production in anti-CD3/CD28-stimulated human PBMCs assessed as increase in IL-2 level after 2 days by ELISA. The note with it: dose 1-10 µM, time 2.0 day. The class given is functional, tissue-based. In general terms: ELISA stands for enzyme-linked immunosorbent assay.
As to `O=C(c1ccccc1)N1CCN(c2cc(N3CCCCC3)c(F)cc2[N+](=O)[O-])CC1`, the Activity result is “Dose-Dependent Effect”.

A further experiment concerns the target T1, Probable G-protein coupled receptor 174 (Homo sapiens, UniProt Q9BXC1). As to the kind of experiment: Inverse agonist activity at human GPR174 assessed as fold decrease in Gs signalling activity by CRA. As to conditions: filed as inverse agonist. The class given is functional.
For `CC(C)c1ccc(C2C3=C(CCCC3=O)NC3=C2C(=O)c2ccccc23)cc1` (stereo unspecified), the fold change (FC) came out at 1.2. The same measure, in the same setting: for `CCc1ccc(C2C3=C(CCCC3=O)NC3=C2C(=O)c2ccccc23)cn1` (stereo unspecified) the value was 2. The same measure, in the same setting: for `CCC(=O)N1CCN(c2cc(N3CCC(C)CC3)c(F)cc2[N+](=O)[O-])CC1` the value was 0.4. As for `O=C1CCCC2=C1C(c1ccc(-c3ccccc3)cc1)C1=C(N2)c2ccccc2C1=O` (stereo unspecified), the fold change (FC) was 2.5. Still for that read-out and setting: for `CC(=O)N1CCN(c2cc(N3CCC(C)CC3)c(F)cc2[N+](=O)[O-])CC1` the value was 0.8; for `O=C1CCCC2=C1C(c1ccc(OC(F)F)cc1)C1=C(N2)c2ccccc2C1=O` (stereo unspecified), 1.2. The same measure, in the same setting: under `O=C1CCCC2=C1C(c1ccc3c(c1)OCCO3)C1=C(N2)c2ccccc2C1=O` (stereo unspecified) stands 2.6; under `O=C1CCCC2=C1C(c1ccc(Oc3ccccc3)cc1)C1=C(N2)c2ccccc2C1=O` (stereo unspecified), 1; under `CCOc1cccc(C2C3=C(CCCC3=O)NC3=C2C(=O)c2ccccc23)c1` (stereo unspecified), 1.6. Same read-out and setting: under `CCOc1ccc(C2C3=C(CCCC3=O)NC3=C2C(=O)c2ccccc23)cn1` (stereo unspecified) stands 0.6; under `CCc1ccc(C2C3=C(CCCC3=O)NC3=C2C(=O)c2ccccc23)cc1` (stereo unspecified), 0.5.

For `CCOc1ccc(C2C3=C(CCCC3=O)NC3=C2C(=O)c2ccccc23)cc1` (stereo unspecified), the fold change (FC) was 0.4. Same read-out and setting: for `O=C1CCCC2=C1C(c1ccc(OC3CCCC3)cc1)C1=C(N2)c2ccccc2C1=O` (stereo unspecified) the value was 1; for `O=C1CCCC2=C1C(c1ccc(OC(F)(F)F)cc1)C1=C(N2)c2ccccc2C1=O` (stereo unspecified), 1.2. On the same count and under the same terms, under `CC(C)Oc1ccc(C2C3=C(CCCC3=O)NC3=C2C(=O)c2ccccc23)cc1` (stereo unspecified) stands 0.6; under `Cc1nnc(-c2ccc(C3C4=C(CCCC4=O)NC4=C3C(=O)c3ccccc34)cc2)o1` (stereo unspecified), 2.8.

For `O=[N+]([O-])c1cc(F)c(N2CCCCCC2)cc1N1CCN(S(=O)(=O)c2ccccc2)CC1`, the fold change (FC) stood at 1.8. Still for that read-out and setting: under `O=C1CCCC2=C1C(c1ccc(Cl)cc1)C1=C(N2)c2ccccc2C1=O` (stereo unspecified) stands 3. Same read-out and setting: under `O=C1CCCC2=C1C(c1ccc(OCCO)cc1)C1=C(N2)c2ccccc2C1=O` (stereo unspecified) stands 4.4; under `CC(C)C(=O)N1CCN(c2cc(N3CCCCC3C)c(F)cc2[N+](=O)[O-])CC1` (stereo unspecified), 0.8; under `O=C1CCCC2=C1C(c1ccc([N+](=O)[O-])cc1)C1=C(N2)c2ccccc2C1=O` (stereo unspecified), 2.7.

For `CC1CCN(c2cc(N3CCN(C(=O)c4cccs4)CC3)c([N+](=O)[O-])cc2F)CC1`, the fold change (FC) is 0.4. Still for that read-out and setting: under `CCOC(=O)N1CCN(c2cc(N3CCCCC3C)c(F)cc2[N+](=O)[O-])CC1` (stereo unspecified) stands 1. Same read-out and setting: for `CC(C)(C)Oc1ccc(C2C3=C(CCCC3=O)NC3=C2C(=O)c2ccccc23)cc1` (stereo unspecified) the value was 1.3. Still for that read-out and setting: for `CS(=O)(=O)c1ccc(C2C3=C(CCCC3=O)NC3=C2C(=O)c2ccccc23)cc1` (stereo unspecified) the value was 3.3. In the case of `O=C(c1ccccc1)N1CCN(c2cc(N3CCCCC3)c(F)cc2[N+](=O)[O-])CC1`, the fold change (FC) stood at 0.3. Still for that read-out and setting: for `CCCC(=O)N1CCN(c2cc(N3CCCCC3)c(F)cc2[N+](=O)[O-])CC1` the value was 0.9; for `CCOC(=O)N1CCN(c2cc(N3CCCCC3)c(F)cc2[N+](=O)[O-])CC1`, 0.3; for `CCCOc1ccc(C2C3=C(CCCC3=O)NC3=C2C(=O)c2ccccc23)cc1` (stereo unspecified), 1. As to `O=[N+]([O-])c1cc(F)c(N2CCCCC2)cc1N1CCN(S(=O)(=O)c2ccccc2)CC1`, the fold change (FC) is 0.5.

Turning to `CCCCCCOc1ccc(C2C3=C(CCCC3=O)NC3=C2C(=O)c2ccccc23)cc1` (stereo unspecified), the fold change (FC) is 0.5. Still for that read-out and setting: under `C=C(C)COc1ccc(NC(=O)Nc2ccccc2)cc1` stands 0.5. The same measure, in the same setting: for `CCC(=O)N1CCN(c2cc(N3CCCCC3)c(F)cc2[N+](=O)[O-])CC1` the value was 0.5; for `C=CCOc1ccc(C2C3=C(CCCC3=O)NC3=C2C(=O)c2ccccc23)cc1` (stereo unspecified), 1.2. For the compound `COc1ccc(C2C3=C(CCCC3=O)NC3=C2C(=O)c2ccccc23)cc1` (stereo unspecified), the fold change (FC) turned out to be 1. For the compound `Cc1ccc(S(=O)(=O)N2CCN(c3cc(N4CCCCC4)c(F)cc3[N+](=O)[O-])CC2)cc1`, the fold change (FC) came out at 1.7. On to `CCOC(=O)N1CCN(c2cc(N3CCC(C)CC3)c(F)cc2[N+](=O)[O-])CC1`, for which the fold change (FC) is 0.4. Same read-out and setting: under `CC(=O)N1CCN(c2cc(N3CCCCC3)c(F)cc2[N+](=O)[O-])CC1` stands 0.3; under `Cc1ccc(S(=O)(=O)N2CCN(c3cc(N4CCC(C)CC4)c(F)cc3[N+](=O)[O-])CC2)cc1`, 1.1; under `CCCCOc1ccc(C2C3=C(CCCC3=O)NC3=C2C(=O)c2ccccc23)cc1` (stereo unspecified), 1.2.

The target of a further experiment is T1, Probable G-protein coupled receptor 174. As to the kind of experiment: Antagonist activity at human GPR174 by CRA.
Settings: not given
The class given is functional.
On to `Cc1ccccc1Nc1nnc(-c2ccc(C)c(S(N)(=O)=O)c2)c2ccccc12`, for which the pEC50 was 6.30.

In another experiment the test system is Splenocyte. As to the kind of experiment: Effects of compound on IL-2 production in anti-CD3/CD28-stimulated wild type mouse spleenocytes assessed as fold increase in IL-2 level at 0.3 uM after 2 days in presence of NECA. The class given is functional. As to conditions: time 2 day.
Regarding `O=C(c1ccccc1)N1CCN(c2cc(N3CCCCC3)c(F)cc2[N+](=O)[O-])CC1`, the “fold change (FC)” value came to 1.7.

The test system of a further experiment is Splenocyte. As to the kind of experiment: Effects of compound on IL-2 production in anti-CD3/CD28-stimulated wild type mouse spleenocytes assessed as fold increase in IL-2 level at 0.3 uM after 2 days in presence of […] and NECA. It is filed as functional. As to conditions: time 2 day.
As to `O=C(c1ccccc1)N1CCN(c2cc(N3CCCCC3)c(F)cc2[N+](=O)[O-])CC1`, the “fold change (FC)” value was 4.9.

Another experiment concerns Splenocyte. In words: Effects of compound on IL-2 production in anti-CD3/CD28-stimulated GPR174 knock out mouse spleenocytes assessed as fold increase in IL-2 level at 0.3 uM after 2 days in presence of NECA. The class given is functional, cell-based. The note with it: time 2.0 day.
For the compound `O=C(c1ccccc1)N1CCN(c2cc(N3CCCCC3)c(F)cc2[N+](=O)[O-])CC1`, the outcome was inactive.

System in another experiment: not listed separately
In words: Effects of compound on IL-2 production in anti-CD3/CD28-stimulated human PBMCs assessed as fold increase in IL-2 level at 10 uM after 24 hrs by ELISA.
Settings: not given
It is filed as functional, PBMC.
Take `Nc1ncnc2c1ncn2[C@@H]1O[C@H](COP(=O)(O)CP(=O)([O-])O)[C@@H](O)[C@H]1O.[Na+]`: the “fold change (FC)” value stood at 1.5.
